Experimental data published in patent US20100069402A1, “Treatment of Behavioral Disorders” (priority 2004, published 2010).

Tests used:
Type in all cases: in vivo
[1] = system: children with ADHD and allergic rhinitis; assay: STUDY A: allergic rhinitis measures (rhinoconjunctivitis symptoms, RQLQ); conditions: children 8-18 years with ADHD and seasonal allergic rhinitis; po qam for 2 weeks
Description: (§1) In general, two studies were conducted to better understand the association between the allergy/immune system and the central nervous system. STUDY A, tested the effects of cetirizine (namely ZYRTEC), cetirizine and methylphenidate (namely RITALIN SR), and methylphenidate, versus placebo on attention, memory, and behavior in children with ADHD and allergic rhinitis. STUDY B assessed NGF response to cetirizine and methylphenidate treatment in children with ADHD and allergic rhinitis.
(§2) The individuals chosen to be a part of these studies had the following characteristics:
(§3) All subjects were randomized into one of four treatment groups as follows:
(§4) 1) cetirizine alone: 10 mg po qam for 2 weeks;
(§5) 2) Combination of cetirizine and methylphenidate: 10 mg po qam RITALIN SR (20 mg if <65 kg; 40 mg if ≧65 kg) po qam for 2 weeks;
(§6) 3) Methylphenidate alone: (20 mg if <65 kg; 40 mg if ≧65 kg) po qam for 2 weeks; and
1) Rhinoconjunctivitis Symptoms
2) Total Symptom Severity Complex, (TSSC)
3) Adolescent Rhinoconjunctivitis Quality of Life Questionnaire, (RQLQ)

[2] = system: children with ADHD and allergic rhinitis; assay: STUDY A: ADHD measures, Conners' Rating Scale t-scores; conditions: po qam for 2 weeks; for hyperactivity t-scores (FIG. 1): evaluation of the ADHD parameters
Description: as §1, §2, §3, §4, §5, §6
5) Conners' Rating Scale—Revised, (CRS)

[3] = system: NGF; assay: STUDY B: serum NGF assay by ELSA (Enzyme-Linked Immunosorbent Assay); conditions: children with ADHD and allergies; po qam for 2 weeks; NGF highest on placebo
Description: as §1, §2, §3, §4, §5
3) Methylphenidate alone: (20 mg if <65 kg; 40 mg if ≧65 kg) po qam for 2 weeks; and […]

Compound	RQLQ emotional symptoms, change from baseline [1]	RQLQ nasal symptoms [1]	rhinoconjuctivitis quality of life scores [1]	hyperactivity t-scores (FIG. 1) [2]	parental Conner's report: ADHD score [2]	parental Conner's report: hyperactivity score [2]	parental Conner's report: inattention score [2]	parental Conner's report: oppositional score [2]	serum NGF level versus placebo [3]
O=C(O)COCCN1CCN(C(c2ccccc2)c2ccc(Cl)cc2)CC1 (stereo not drawn) [cetirizine]	similar	methylphenidate had a superior effect compared to cetirizine	methylphenidate had a superior effect compared to cetirizine	no difference was noted	no difference was recorded	no difference was recorded	no difference was recorded	no difference was recorded	downregulated to the same extent
COC(=O)C(c1ccccc1)C1CCCCN1 (stereo not drawn) [methylphenidate]	similar	superior effect compared to cetirizine	superior effect compared to cetirizine	no difference was noted	no difference was recorded	no difference was recorded	no difference was recorded	no difference was recorded	downregulated to the same extent
